A word on the IC50: it is the concentration needed to halve the response being measured.

Molecules are shown by their SMILES.

This assay addresses recombinant human PDE-10 enzyme (human PDE-10A) (Homo sapiens (Human), UniProt Q9Y233). Description: PDE-10A enzymatic assay (Molecular Devices IMAP PDE Fluorescence Polarization). It is filed as biochemical. The note with it: recombinant human PDE-10, fluorescein-labeled cAMP/cGMP substrate, 40 min at 37° C. The protocol: In one embodiment, the compounds provided herein were assayed for their ability to inhibit human PDE-10A. In one embodiment, the activities of the compounds were determined using the Molecular Devices IMAP PDE Fluorescence Polarization assay using recombinant human PDE-10 enzyme expressed in a baculoviral system. Briefly, 10 μL of a compound (0.2 nM-20 μM) was added to either a 96-well half area black plate or a 384-well black plate along with 10 μL of Fluorescein-labeled cAMP/cGMP substrate as per manufacturer's instructions and 10 μL of PDE enzyme (activity 0.1 U). Following a 40-minute incubation at 37° C., 60 μL of IMAP binding reagent was added. […] The data was analyzed using Prism Software (GraphPad Inc, San Diego, Calif.).
IC50 (μM) in PDE-10A Enzymatic Assay and EC300 (μM) in Cell-Based Assay.
(Polarisation of emitted light reports the rotation of a fluorescent probe.)

Chain of recombinant human PDE-10 enzyme (human PDE-10A) (Q9Y233 whole entry): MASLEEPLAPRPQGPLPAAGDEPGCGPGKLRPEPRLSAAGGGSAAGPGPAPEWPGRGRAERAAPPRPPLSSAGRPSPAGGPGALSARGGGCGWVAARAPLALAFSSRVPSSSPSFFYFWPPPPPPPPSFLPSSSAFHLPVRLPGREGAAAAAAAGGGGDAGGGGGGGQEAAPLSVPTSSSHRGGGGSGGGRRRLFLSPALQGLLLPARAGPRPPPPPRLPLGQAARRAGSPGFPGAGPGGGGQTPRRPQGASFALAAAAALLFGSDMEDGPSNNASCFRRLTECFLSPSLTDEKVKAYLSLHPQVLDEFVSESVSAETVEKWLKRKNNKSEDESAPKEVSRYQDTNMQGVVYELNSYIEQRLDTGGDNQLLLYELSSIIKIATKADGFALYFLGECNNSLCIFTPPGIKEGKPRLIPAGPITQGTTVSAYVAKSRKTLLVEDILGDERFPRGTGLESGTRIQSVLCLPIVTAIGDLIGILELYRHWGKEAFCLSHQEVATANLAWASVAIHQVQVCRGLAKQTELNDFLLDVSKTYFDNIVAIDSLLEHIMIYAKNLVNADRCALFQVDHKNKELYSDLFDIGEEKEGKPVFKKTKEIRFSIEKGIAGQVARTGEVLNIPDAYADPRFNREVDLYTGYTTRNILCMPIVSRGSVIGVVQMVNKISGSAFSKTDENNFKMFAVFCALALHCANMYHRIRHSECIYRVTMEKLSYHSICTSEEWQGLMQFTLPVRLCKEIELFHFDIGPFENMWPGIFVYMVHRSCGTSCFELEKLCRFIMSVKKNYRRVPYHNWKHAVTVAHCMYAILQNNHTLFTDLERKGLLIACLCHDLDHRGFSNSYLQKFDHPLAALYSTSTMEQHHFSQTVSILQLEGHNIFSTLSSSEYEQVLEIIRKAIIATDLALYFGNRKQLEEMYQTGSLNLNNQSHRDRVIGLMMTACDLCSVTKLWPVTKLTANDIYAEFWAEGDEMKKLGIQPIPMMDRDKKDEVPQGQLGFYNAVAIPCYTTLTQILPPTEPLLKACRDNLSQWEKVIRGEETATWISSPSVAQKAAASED

As to `O=c1[nH]c(CCc2nc(-c3ccccc3)c[nH]2)nc2ccccc12` [Compound 14], the IC50 fell in the range of 1 to 10 µM.

The values above are taken from patent US10562916B2, “Substituted quinoxalines as PDE-10 inhibitors” (SUNOVION PHARMACEUTICALS INC., priority 2010, dated 2020).
